Source: patent US20070270392A1, “Use of a Cyclopentenone Prostaglandin for Delaying the Onset and/or Preventing the Continuation of Labour” (Imperial College Innovations Limited, priority 2003, published 2007)

Tests used:
[1] = test system: NF-κB; test: EMSA of NF-κB DNA binding in nuclear extracts of treated amnion cells; type: cell-based, human; settings: L− and L+ amnion cells, treated 2 h, IL-1β stimulation 15 min
Method: Electro-mobility shift assay (EMSA) analysis of NF-κB DNA binding in nuclear protein extracts from (A) myometrial cells, (B) L+amnion cells, and (C) L− amnion cells treated with 15dPGJ2 or vehicle for 2 h+/−IL-1b stimulation (15 min). Consensus kB probe used to assess NF-κB DNA binding, and consensus Oct-1 probe used as control.
EMSA analysis of nuclear protein extracts from amnion cells treated with 15dPGJ2+/−GW9662 or vehicle for 2 h followed by IL-1β stimulation (15 min). Consensus kB probe used to assess NFκB DNA binding, consensus Oct-1 probe used as control.
EMSA analysis of nuclear protein extracts from (A) myometrial cells, and (B) amnion cells treated with PGA1 or vehicle for 2 h followed by IL-1b stimulation (15 min). Consensus κB probe used to assess NFκB DNA binding, consensus Oct-1 probe used as control. For supershift analysis, extracts were preincubated with antibodies against p50 or p65.
EMSA analysis of nuclear protein extracts from (A) L− amnion cells and (B) myometrial cells treated with vehicle, PGE2 or IL-1β. Consensus κB probe used.
Placentae were obtained from patients at term either at elective Caesarean section prior to labour (L−) or following spontaneous labour onset and vaginal delivery (L+). Amnion cells were prepared as described in Bennett et al., (1989). Briefly, the amnion was separated from the placenta, washed 3× in PBS, cut into strips, and incubated in 0.51 mM EDTA in PBS for 15 min. The strips were washed in PBS 2× and digested with 2.5 mg/ml dispase in serum-free DMEM for 35 min at 37° C. The amnion was then shaken vigorously in DMEM, 10% FCS to dissociate the cells, the remaining strips discarded, and the cell suspension pelleted at 175 g for 10 min and cultured in DMEM, 10% FCS (Sigma), 1% L-glutamine, 1% penicillin-streptomycin.
Nuclear and cytosolic protein extracts were obtained from cultured amnion cells as described by Schreiber et al (1989). For nuclear/cytosolic fractionation, confluent cell monolayers were scraped and lysed using a buffer containing 10 mM HEPES, 10 mM KCl, 0.1 mM EDTA, 0.1 mM EGTA, 2 mM DTT, 1% (v/v) NP-40 and complete protease inhibitor tablets (CPIs, Roche), diluted to manufacturer's instructions. Cell lysates were incubated on ice for 10 min and NP-40 added to a final concentration of 1% (v/v). Lysates were vortexed for 10 secs and centrifuged for 30 secs at 4° C., 12000 g. The supernatants were retained as the cytosolic protein extracts. The pellets were resuspended in buffer containing 10 mM HEPES, 10 mM KCl, 0.1 mM EDTA, 0.1 mM EGTA, 2 mM DTT, 400 mM NaCl, 1% NP-40 (v/v) and CPIs. Samples were shaken vigorously for 15 min in an ice bath. The nuclear protein extracts were obtained in the supernatant following a 5 min centrifugation at 4° C., 12000 g.
Sense and antisense strands (175 nmole/ml each) were incubated in annealing buffer (10 mM Tris-HCl pH7.5, 100 mM NaCl, 1 mM EDTA) for 10 min at 65° C., and allowed to cool at room temperature for 2 h. 3.5 pmole double-stranded oligonucleotides were end-labelled with 0.37 MBq ^32P(γATP) by incubating for 30 min at 37° C. with T4 polynucleotide kinase. Labelled oligonucleotides were recovered by centrifugation at […] for 2 min through MicroSpin G-25 or G-50 sephadex columns (Amersham Biosciences). […]

[2] = test system: NF-κB; test: NF-κB-dependent luciferase reporter (κB.BG.Luc) in myometrial cells; type: cell-based, human; settings: for IL-1-induced NF-κB transcriptional activity: treated 2 h, IL-1β 1 ng/ml 6 h
Method: Myometrial cells were transiently transfected with the NFκB-dependent reporter construct κB.BG.Luc, treated with 15dPGJ2 or vehicle for 2 h, +/−IL-1β(1 ng/ml) for 6 h. […] Values are normalised for b-gal reporter activity. (NS=nonstimulated).
Myometrial cells were transfected with […] κB.BG.Luc reporter and 200 ng PPAR-γ expression vector and treated with 15d-PGJ2 for 2 h followed by IL-1β (1 ng/ml) for 6 h. Values are normalised for β-galactosidase reporter activity. (NS=nonstimulated).
Myometrial tissue was collected at term from the upper margin of uterine incision at the time of lower segment caesarean section either prior to the onset of labour (L−) or […] (L+). L+ samples were collected by Dr Mark Johnson and Dr S Soorrana at Chelsea & Westminster Hospital. Myometrial tissue was dissected, rinsed in PBS, and digested in serum-free DMEM containing 15 mg/ml collagenase 1A (Sigma), 15 mg/ml collagenase X, and 50 mg/ml bovine serum albumin for 45 min at 37° C. The cell suspension was filtered through a cell strainer, centrifuged at 400 g for 5 min, and the pellet re-suspended and plated out in DMEM, 10% FCS (Helena BioScience), 1% L-glutamine, 1% penicillin-streptomycin. Cells were used between passage numbers 1-4.
pGL3.6 κB.BG.luc: a NF-κB-dependent reporter construct with 6 copies of the NF-κB binding site.
Cells were co-transfected with the renilla vector pRL-CMV or a β-galactosidase vector pCH110 as internal controls for transfection efficiencies.

Row | SMILES | IL-1β-induced NF-κB DNA binding [1] | IL-1-induced NF-κB transcriptional activity [2] | Effect of PPARγ overexpression on 15d-PGJ2 inhibition of NF-κB transcriptional activity ([2]; 200 ng PPAR-γ expression vector)
1 | CCCCC[C@H](O)/C=C/[C@H]1C=CC(=O)[C@@H]1CCCCCCC(=O)O [PGA1, prostaglandin A1] | able to inhibit | reduced to basal levels | –
2 | CCCCCC=CC=C1C(=O)C=C[C@@H]1CC=CCCCC(=O)O [15d-PGJ2, 15-deoxy-Δ^12,14prostaglandin J2] | inhibited | inhibited | did not promote
